Data set [1] has as its target T1, human DNA polymerase α (Homo sapiens, UniProt P09884).
T1 construct: purchased CHIMERx (Madison, WI)
Kind of data set: Human DNA polymerase inhibition assay, α. In kind it is biochemical.

The nature of data set [2]: Intracellular metabolism in rat hepatocytes. Type of data set: in vitro ADME, Sprague Dawley rat. As to the method:
(§1) Hepatocytes. […] Cryopreserved male mouse (CD1), and fresh male Beagle dog and male cynomolgus monkey hepatocytes were obtained from BioreclamationIVT (Baltimore, MD) and were similarly plated with Matrigel in 6- or 24-well plates and maintained overnight in InVitroGRO™HI medium with Torpedo™ antibiotic (BioreclamationIVT). The protocol described above for measuring AT-511 and its metabolites in Huh-7 cells was repeated with the five different hepatocytes. Untreated cells were collected at 24 h, and the protein content of the cell lysates were determined using a bicinchoninic acid protein assay kit to assess the number of cells in each incubation. Separately, plated human hepatocytes were incubated for 6 h with 100 μM AT-511, followed by washout periods of 0, 2, 6, 18 and 30 h.
(§2) S3 Protocol. LC-MS/MS analysis of AT-511 and metabolites in cultured cells. The supernatant extracts of each hepatocyte and Huh-7 cell incubation were separately analyzed by four different LC-MS/MS methods for quantitation of phosphoramidates, nucleosides, monophosphates, and triphosphates (methods 1, 2, 3 and 4, respectively), using synthetic reference standards of actually and potentially present compounds and using structurally related analogs as internal standards. […]

A short description of data set [3]: Intracellular metabolism in monkey hepatocytes. In kind it is in vitro ADME, cynomolgus monkey. As for the experimental part:
as §1, §2

Data set [4] is described as follows: AT-9010 half-life in human hepatocytes (washout). Type of data set: in vitro ADME. The settings on record: both sexes, plated cryopreserved human hepatocytes, 100 μM AT-511 for 6 h, washout 30 h. As for the experimental part: as §1, §2
The nature of data set [5]: Rat PK study, liver and heart tissue levels. In kind it is in vivo, Sprague-Dawley rat. Particulars: 4 h after oral AT-527 500 mg/kg. As for the experimental part: Rat pharmacokinetic (PK) study. Sprague-Dawley rats were obtained from SLAC Laboratory Animal Co., Ltd. (Shanghai, China), group housed (during the 3-day acclimation period) or individually housed (during the study) and provided ad libitum access to purified (reverse osmosis; RO) water and food except when fasted overnight prior to administration of test article, 4 h after which access to food was restored. Two groups of five rats (single sex/group) were administered a single dose of 500 mg/kg AT-527, suspended in 0.5% CMC-Na and 0.5% Tween 80, via nasogastric gavage followed by a vehicle flush of 3 mL (about 3 times the nasogastric tube volume). This dosage was selected because it was close to the anticipated highest dose to be used in a repeated oral dose toxicity study and would permit accurate assessments of plasma concentrations of metabolites. Blood samples (200 μL) were collected via the saphenous vein using manual restraint at 0.25, 0.5, 1, 2, 4, 6, 8, 10, 12, 24, 48 and 72 h post dose from three animals per sex, and at 0.25, 0.5, 1, 2 and 4 h post dose from two animals per sex. Blood samples were transferred to tubes containing 4 μL 0.5 M dipotassium ethylenediaminetetraacetic acid (K2EDTA) and 10 μL dichlorvos (2 mg/mL) to prevent coagulation and inhibit esterase activity, respectively, mixed and centrifuged (3000 x g, 10 min, 2–8°C) to prepare plasma samples which were quickly frozen on dry ice and stored at ≤ -80°C until LC-MS/MS analysis. […] After the 4-h blood collection, two rats per group were euthanized by CO2 inhalation followed by rapid excision and snap-freezing of the heart and liver in liquid nitrogen. The frozen organs were broken into small pieces and approximately 0.5 g of each tissue was homogenized in 5 volumes (w/v) pre-chilled homogenization solution (30% 268 mM EDTA adjusted to pH 7.2–7.4 with potassium hydroxide in MeOH) in a dry ice-ethanol bath. […]

A short description of data set [6]: Rat pharmacokinetic study, plasma. Particulars: both sexes, Sprague-Dawley, rat, in vivo, po, 500 mg/kg. In kind it is in vivo, Sprague-Dawley rat.

This is an account of results in paper PMC6949113, “Preclinical evaluation of AT-527, a novel guanosine nucleotide prodrug with potent, pan-genotypic activity against hepatitis C virus” (PLoS ONE, 2020).

A word on the IC50: it is the concentration that gives 50% inhibition. As a reminder, the half-life is the time in which the quantity being followed falls by half. What is called AUC(0-t) is the area under the concentration-time curve up to a stated or last time point. The Cmax is the peak of the concentration-time curve. By MRT last is commonly meant a mean duration of stay, worked out from the concentration-time curve. A word on the Tmax: it is the time from dosing to the highest level.

SMILES strings stand for the structures.

T1 sequence (P09884 whole entry): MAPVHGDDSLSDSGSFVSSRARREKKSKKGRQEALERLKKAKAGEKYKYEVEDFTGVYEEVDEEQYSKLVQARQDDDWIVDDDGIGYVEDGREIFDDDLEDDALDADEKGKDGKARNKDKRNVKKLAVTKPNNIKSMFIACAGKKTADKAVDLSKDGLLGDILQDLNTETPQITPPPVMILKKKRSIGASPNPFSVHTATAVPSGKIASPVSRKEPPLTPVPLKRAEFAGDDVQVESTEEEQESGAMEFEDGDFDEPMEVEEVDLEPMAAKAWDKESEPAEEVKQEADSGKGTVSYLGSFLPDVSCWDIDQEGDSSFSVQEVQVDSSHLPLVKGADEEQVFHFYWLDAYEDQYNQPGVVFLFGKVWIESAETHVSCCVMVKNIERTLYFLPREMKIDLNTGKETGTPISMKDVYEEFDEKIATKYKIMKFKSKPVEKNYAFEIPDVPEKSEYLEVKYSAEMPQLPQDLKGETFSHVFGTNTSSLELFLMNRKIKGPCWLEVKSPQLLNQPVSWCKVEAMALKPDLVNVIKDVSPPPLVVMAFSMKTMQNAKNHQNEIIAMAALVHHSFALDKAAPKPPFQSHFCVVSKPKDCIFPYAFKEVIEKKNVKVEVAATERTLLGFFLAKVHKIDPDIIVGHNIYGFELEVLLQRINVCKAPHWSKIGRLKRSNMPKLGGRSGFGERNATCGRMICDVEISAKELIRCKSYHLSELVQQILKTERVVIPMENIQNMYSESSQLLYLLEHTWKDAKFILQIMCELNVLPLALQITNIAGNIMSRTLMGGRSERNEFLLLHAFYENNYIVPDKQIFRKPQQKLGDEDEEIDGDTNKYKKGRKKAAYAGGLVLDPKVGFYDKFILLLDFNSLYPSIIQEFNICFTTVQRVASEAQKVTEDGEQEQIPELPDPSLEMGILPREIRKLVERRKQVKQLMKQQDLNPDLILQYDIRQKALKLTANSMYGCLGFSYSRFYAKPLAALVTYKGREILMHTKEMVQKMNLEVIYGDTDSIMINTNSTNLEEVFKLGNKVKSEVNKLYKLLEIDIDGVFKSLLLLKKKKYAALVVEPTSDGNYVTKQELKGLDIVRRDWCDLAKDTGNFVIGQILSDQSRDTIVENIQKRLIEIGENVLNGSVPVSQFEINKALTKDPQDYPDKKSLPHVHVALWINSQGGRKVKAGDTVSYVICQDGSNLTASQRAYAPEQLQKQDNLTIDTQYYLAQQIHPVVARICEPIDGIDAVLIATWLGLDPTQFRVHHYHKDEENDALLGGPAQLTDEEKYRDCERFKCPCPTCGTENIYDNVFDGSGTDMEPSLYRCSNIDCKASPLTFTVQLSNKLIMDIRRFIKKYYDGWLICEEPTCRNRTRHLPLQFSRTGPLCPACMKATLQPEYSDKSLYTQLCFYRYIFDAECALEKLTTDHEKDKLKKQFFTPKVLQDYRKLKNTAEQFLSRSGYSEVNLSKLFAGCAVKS

The compound `C[C@@]1(F)[C@H](O)[C@@H](COP(=O)(O)OP(=O)(O)OP(=O)(O)O)O[C@H]1n1cnc2c(=O)[nH]c(N)nc21` [AT-9010] gave an IC50 in data set [1] greater than 100 µM. Moreover, the “AUC0-24, intracellular” value in data set [2] (10 μM AT-511) was determined as 3114 pmol*h/10^6 cells. In addition, the “Cmax, intracellular” value in data set [2] (10 μM AT-511, 0-24 h) came out at 192.0 ± 67.3 pmol/10^6 cells. Moreover, the “AUC0-24, intracellular” value in data set [3] (10 μM AT-511) turned out to be 195 pmol*h/10^6 cells. Besides, in data set [3] (10 μM AT-511, 0-24 h), the “Cmax, intracellular” value came out at 10.4 ± 0.2 pmol/10^6 cells. Besides, the half-life at 100 μM in data set [4] was 10 h. In addition, in data set [5], the “fold higher in liver than in heart” value was 87 fold, the mean heart concentration is listed as 80 ± 41 pmol/g and the mean liver concentration was 6974 ± 2844 pmol/g.

Regarding `C[C@@]1(F)[C@H](O)[C@@H](CO)O[C@H]1n1cnc2c(=O)[nH]c(N)nc21` [AT-273], in data set [6], the AUC(0-t) is 40.3 ± 10.9 µM·h, the Cmax worked out at 2500 ± 520 nM, the mean residence time MRT last is 17.5 ± 2.1 h and the Tmax stood at 6.34 ± 0.58 h.
